{"source": "paper PMC3983388", "about": "(Journal of Medicinal Chemistry, 2014)", "key": {"[1]": {"details": "in vivo, po; cited from earlier work"}, "[2]": {"details": "pH 6.8, aqueous solubility pH 6.8"}}, "data": [{"smiles": "Cc1ccnc(NC(c2ccc([N+](=O)[O-])cc2)c2ccc3cccnc3c2O)c1", "note": "(centres unmarked) [Compound 34]", "values": [{"measurement": "solubility", "setting": "physchem; [2]", "value": 0.0741, "unit": "µM"}]}, {"smiles": "Oc1c(I)cc(Cl)c2cccnc12", "note": "[Compound 58, 5-chloro-7-iodo-8-hydroxy-quinoline, reference compound]", "values": [{"measurement": "solubility", "setting": "physchem; [2]", "value": "< 0.001", "unit": "µM"}, {"measurement": "serum levels", "setting": "[1]", "value": "13 to 25", "unit": "µM"}]}, {"smiles": "Oc1c(C(Nc2ccccn2)c2ccccc2)ccc2cccnc12", "note": "(centres unmarked) [Compound 57, 7-(Phenyl((pyridin-2-yl)amino)methyl)quinolin-8-ol]", "values": [{"measurement": "solubility", "setting": "physchem; pH 1, aqueous solubility pH 1.0", "value": "~1200", "unit": "µM"}, {"measurement": "solubility", "setting": "physchem; [2]", "value": 0.078, "unit": "µM"}]}, {"smiles": "COc1ccc(C(Nc2ccccn2)c2ccc3ccc(C)nc3c2O)cc1", "note": "(centres unmarked) [Compound 37]", "values": [{"measurement": "solubility", "setting": "physchem; [2]", "value": 0.0338, "unit": "µM"}]}, {"smiles": "COc1ccc(C(Nc2ccccn2)c2ccc3cccnc3c2O)cc1", "note": "(centres unmarked) [Compound 36]", "values": [{"measurement": "solubility", "setting": "physchem; [2]", "value": 0.0053, "unit": "µM"}]}, {"smiles": "Oc1c(CNc2ccccn2)ccc2cccnc12", "note": "[Compound 56, 7-(((Pyridin-2-yl)amino)methyl)quinolin-8-ol]", "values": [{"measurement": "solubility", "setting": "physchem; [2]", "value": 0.111, "unit": "µM"}]}, {"smiles": "Oc1c(Cl)cc(Cl)c2cccnc12", "note": "[Compound 60, 5,7-dichloro-8-hydroxy-quinoline, reference compound]", "values": [{"measurement": "solubility", "setting": "physchem; [2]", "value": 0.5, "unit": "µM"}]}, {"smiles": "Cc1ccnc(NC(c2ccc([N+](=O)[O-])cc2)c2ccc3ccc(C)nc3c2O)c1", "note": "(centres unmarked) [Compound 35]", "values": [{"measurement": "solubility", "setting": "physchem; [2]", "value": 0.0659, "unit": "µM"}]}, {"smiles": "Cc1ccc2c(Cl)cc(Cl)c(O)c2n1", "note": "[Compound 61, 5,7-dichloro-2-methyl-8-hydroxy-quinoline]", "values": [{"measurement": "solubility", "setting": "physchem; [2]", "value": 0.394, "unit": "µM"}]}]}
